Several values for one entry are separate records, joined by “and”; a condition that tells them apart may be missing. Identical values can stand only once. Entries after “also recorded” stand apart in the source; their conditions may differ. Like-named read-outs stand apart in the source and are kept apart here.
Columns and labels:
[1] = test system: RERF-LC-AI^IVP human lung tumor cells; assay: Nude mouse xenograft study with fractionated ionizing radiation; assay type: in vivo
Method: Cells that had been cryopreserved in liquid nitrogen were rapidly thawed at 37° C. and transferred to a tissue culture flask containing growth media and then incubated at 37° C. in a 5% CO2 incubator. […] Cultures were passaged by washing with 10 mL of room temperature phosphate buffered saline (PBS) and then disassociating cells by adding 5 mL 1× trypsin-EDTA and incubating at 37° C. until the cells detached from the surface of the flask. To inactivate the trypsin, 5 mL of growth media was added and then the contents of the flask were centrifuged to pellet the cells. The supernatant was aspirated and the cell pellet was resuspended in 10 mL of growth media and the cell number determined using a hemocytometer.
Animals were housed 4-5/cage in micro-isolators, with a 12 hr/12 hr light/dark cycle, acclimated for at least 1 week prior to use and fed normal laboratory chow ad libitum.

Ramos cells = assay: ROS generation in drug-treated cells, carboxy-H2DCFDA probe, flow cytometry; assay type: cell-based; conditions: for blocking of the ROS generation induced by Compound 1: Ramos cells pre-treated 1 hour (NAC 1.0 mM or 10 mM; Tiron 500 mM) prior to Compound 1 0.5 μM for 24 hours
Method: In these experiments, we monitored the production of ROS using the cell permeable Carboxy-H2DCFDA probe. When this probe is oxidized by ROS, it emits a green fluorescence that can be detected using flow cytometry or fluorescent microscopy. Ramos cells were treated with Compound 1 (0.5 μM) for 24 hours or pre-treated with 1.0 mM or 10 mM NAC for 1 hour prior to addition of Compound 1 was then washed gently once with warm HBSS/Ca/Mg (GIBCO.14025). 25 μM carboxy-H2DCFDA (Invitrogen. C400) working solution was added to cover the cells, and the cells were incubated for 30 minutes at 37° C., protected from light. The cells were gently washed three times in warm HBSS/Ca/Mg. ROS levels, as determined by fluorescence intensity, were determined by flow cytometry (excitation at 495 nm, emission at 529 nm).
Tiron is a direct scavenger of ROS and is a potent inhibitor of oxidative stress. Ramos cells were pre-treated with 500 mM Tiron 1 hour prior to addition of Compound 1 (0.5 μM) for 24 hours, then measurement of ROS levels was performed as in Example 3.

melanoma = conditions: other currently used treatments for melanoma, cited from earlier work
Hsp70 = Hsp70 induction by Compound 1 in cells pre-treated with Tiron; assay type: cell-based; conditions: Ramos cells pre-treated with 500 mM Tiron 1 hour prior to Compound 1 0.5 μM for 24 hours
[2] = RECIST, Efficacy Sample (n = 50 combination, n = 27 Paclitaxel)
[3] = Tables 3 and 4, lines of the applicant's own trial

Method for Stage 1V melanoma: A total of 81 people with Stage 1V melanoma were tested in a randomized trial with ratios of 2:1, compound (I)+paclitaxel (53 people): paclitaxel alone (28 people). The dosages administered were 213 mg/m^2 compound (I), 80 mg/m^2 paclitaxel, and the dosage regimen was 3 weekly doses per each 4 week cycle. Patients were treated until progression of the disease. Patients who progressed on paclitaxel alone were given the option to crossover to compound (I)+paclitaxel and were treated until progression. The tumor assessments were performed at baseline, Cycle 2, and every other Cycle thereafter.

Which results are given for `CN(NC(=O)CC(=O)NN(C)C(=S)c1ccccc1)C(=S)c1ccccc1` [Compound (1)]?
% T/C ([1]; 100 mg/kg Compound 1 5 times per week combined with 0.5 Gy radiation 3 times per week, dosed 420 minutes after irradiation): 47; toxicity of the combination treatment ([1]; 100 mg/kg Compound 1 combined with 0.5 Gy radiation, Nude mice): not associated with excessive toxicity; % T/C ([1]; 100 mg/kg Compound 1 i.v. 5 times per week, 15 doses, alone (mock irradiation)): 112; earliest time at which induction of ROS was observed (Ramos cells; Ramos cells, Compound 1): ≤ 3 h; generation of ROS in drug-treated cells (Ramos cells; Ramos cells, Compound 1 0.5 μM, 24 hours, versus DMSO): induced the generation of ROS; also recorded: emit more reactive oxygen species than cells treated with DMSO alone

With `CCOP(=O)(OCC)C(C)NC(=O)N(CCCl)N=O` (stereo not drawn) [Fotemustine] as the compound, how does the “OR (%)” value (melanoma) read?
Its value is 15.2%.

What about the “Survival (months)” value (melanoma) of the same compound?
The value was 7.3 months.

And the “TTP” value (melanoma)?
The value was 55 days.

Which “blocking of the ROS generation induced by Compound 1” value (Ramos cells) does the source give for `CC(=O)N[C@@H](CS)C(=O)O` [NAC] here?
The value was “almost completely blocked the generation of ROS; also recorded: can be blocked; also recorded: block the production of reactive oxygen species”.

With `CC(=O)O[C@H]1C(=O)[C@@]2(C)[C@H]([C@H](OC(=O)c3ccccc3)[C@]3(O)C[C@H](OC(=O)[C@H](O)[C@@H](NC(=O)c4ccccc4)c4ccccc4)C(C)=C1C3(C)C)[C@]1(OC(C)=O)CO[C@@H]1C[C@@H]2O` [Paclitaxel] as the compound, how does the “Time to Progression (days), 25th percentile” value (Stage 1V melanoma; Kaplan-Meier estimate, Efficacy Sample, 213 mg/m^2 compound (I), 80 mg/m^2 paclitaxel, 3 weekly doses per 4 week cycle) read?
The value was 49.0 days.

What about the “Time to Progression (days), 75th percentile” value (Stage 1V melanoma; Kaplan-Meier estimate, Efficacy Sample, same regimen) of the same compound?
The value was 106.0 days.

What about the “Time to Progression (days), Median” value (Stage 1V melanoma; Kaplan-Meier estimate, Efficacy Sample, same regimen, log-rank p-value 0.017) of the same compound?
The value was 56.0 days.

What about the “Best Overall Response: Partial Response (PR), percent of patients” value (Stage 1V melanoma; RECIST, Efficacy Sample) of the same compound?
The value was “(3.7%)”.

And the “Best Overall Response: Progressive Disease (PD), percent of patients” value (Stage 1V melanoma; RECIST, Efficacy Sample)?
Its value is “(59.3%)”.

What about the “Best Overall Response: Complete Response (CR), number of patients” value (Stage 1V melanoma; [2]) of the same compound?
The value was 0.

What about the “Best Overall Response: Partial Response (PR), number of patients” value (Stage 1V melanoma; [2]) of the same compound?
The value was 1.

What about the “Best Overall Response: Progressive Disease (PD), number of patients” value (Stage 1V melanoma; [2]) of the same compound?
The value was 16.

And the “Best Overall Response: Stable Disease (SD), number of patients” value (Stage 1V melanoma; [2])?
The value was 10.

What about the “CR + PR” value (Stage 1V melanoma; RECIST, Efficacy Sample, Two-Sided Fisher's Exact Test p-value 0.149) of the same compound?
Its value is 3.7%.

What about the “CR (%)” value (Stage 1V melanoma; [3]) of the same compound?
The value was 0%.

And the “OR (%)” value (Stage 1V melanoma; [3])?
Its value is 3.7%.

And the “PR (%)” value (Stage 1V melanoma; [3])?
Its value is 3.7%.

And the “TTP” value (Stage 1V melanoma; [3])?
The value was 57 days.

And the “OR (%)” value (melanoma; listed as Paclitaxel (Taxol))?
Its value is 12% and 17.8%.

Which “PR (%)” value (melanoma) does the source give for `CNC(=O)c1cc(Oc2ccc(NC(=O)Nc3ccc(Cl)c(C(F)(F)F)c3)cc2)ccn1` [Sorafenib] here?
Its value is 2.6%.

Which results are given for `CC/C(=C(\c1ccccc1)c1ccc(OCCN(C)C)cc1)c1ccccc1` [Tamoxifen]?
CR (%) (melanoma): 1%; OR (%) (melanoma): 4.9%; PR (%) (melanoma): 3.9%

For `O=S(=O)(O)c1cc(O)c(O)c(S(=O)(=O)O)c1` [Tiron], which “blocking of the Hsp70 induction by Compound 1” value (Hsp70) is on record?
Its value is “blocked; also recorded: blocks the induction of Hsp70”.

And the “blocking of the ROS generation induced by Compound 1” value (Ramos cells)?
Its value is “blocked the ability of Compound 1 to generate ROS; also recorded: block the production of reactive oxygen species”.

— patent US7939564B2, “Combination with bis(thiohydrazide amides) for treating cancer” (Synta Pharmaceuticals Corp., priority 2006, dated 2011)
